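Briefly, cells in 96-well plates were exposed to five compound concentrations for 48 h, and endpoints were estimated by linear interpolation. TGI denotes the concentration required for complete inhibition of growth.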
Experiments:
Assay in all cases: inhibition of tumour cell growth, NCI panel, 48 h
HCT-15 colon = tested on: HCT-15 colon
PC-3 prostate = tested on: PC-3 prostate
EKVX NSCLC = tested on: EKVX NSCLC
K-562 leukemia = tested on: K-562 leukemia
BT-549 breast = tested on: BT-549 breast
NCI-H23 lung = tested on: NCI-H23 lung
ACHN renal = tested on: ACHN renal
NCI-H460 lung = tested on: NCI-H460 lung
OVCAR-4 ovarian = tested on: OVCAR-4 ovarian
SNB-19 CNS = tested on: SNB-19 CNS
SNB-75 CNS = tested on: SNB-75 CNS
CCRF-CEM leukemia = tested on: CCRF-CEM leukemia
MDA-N = tested on: MDA-N
NCI-H522 lung = tested on: NCI-H522 lung
MDA-MB-435 = tested on: MDA-MB-435
OVCAR-8 ovarian = tested on: OVCAR-8 ovarian
UO-31 renal = tested on: UO-31 renal
UACC-257 melanoma = tested on: UACC-257 melanoma
HCC-2998 colon = tested on: HCC-2998 colon
KM12 colon = tested on: KM12 colon

Row | SMILES | TGI (HCT-15 colon) [µM] | TGI (PC-3 prostate) [µM] | TGI (EKVX NSCLC) [µM] | TGI (K-562 leukemia) [µM] | TGI (BT-549 breast) [µM] | TGI (NCI-H23 lung) [µM] | TGI (ACHN renal) [µM] | TGI (NCI-H460 lung) [µM] | TGI (OVCAR-4 ovarian) [µM] | TGI (SNB-19 CNS) [µM] | TGI (SNB-75 CNS) [µM] | TGI (CCRF-CEM leukemia) [µM] | TGI (MDA-N) [µM] | TGI (NCI-H522 lung) [µM] | TGI (MDA-MB-435) [µM] | TGI (OVCAR-8 ovarian) [µM] | TGI (UO-31 renal) [µM] | TGI (UACC-257 melanoma) [µM] | TGI (HCC-2998 colon) [µM] | TGI (KM12 colon) [µM]
1 | CCN(CC)CCOc1ccc(N2Cc3ccccc3C2=O)cc1 | > 10 | > 10 | > 10 | > 10 | > 10 | > 10 | > 10 | > 10 | > 10 | > 10 | > 10 | > 10 | > 10 | > 10 | > 10 | > 10 | > 10 | > 10 | > 10 | –
2 | N#Cc1c(N)c2c(c(-c3ccccc3)c1-c1ccccc1)C(=O)N(Nc1ccccc1)C2=O | > 100 | > 100 | > 100 | > 100 | > 100 | – | > 100 | > 100 | > 100 | > 100 | > 100 | > 100 | > 100 | > 100 | > 100 | > 100 | 78.3 | > 100 | > 100 | 56.4
3 | CC(O)CCNC(=O)Nc1c(C(F)(F)F)cc(-c2ccccc2)[nH]c1=O (stereo not given) | > 100 | > 100 | > 100 | > 100 | > 100 | > 100 | > 100 | > 100 | > 100 | > 100 | > 100 | > 100 | > 100 | > 100 | > 100 | > 100 | > 100 | > 100 | > 100 | > 100
4 | CCCCC1C(=O)N(c2ccc(S(=O)(=O)Nc3ccccn3)cc2)N(c2ccc(O)c(C(=O)O)c2)C1=O (stereo not given) | > 100 | > 100 | > 100 | > 100 | > 100 | > 100 | > 100 | > 100 | > 100 | > 100 | > 100 | > 100 | > 100 | > 100 | > 100 | > 100 | > 100 | > 100 | > 100 | > 100
5 | O=C1N[C@H]2C(=O)c3c(Cl)sc(Cl)c3[C@H]2O1 | 16.6 | 31 | 3.85 | 5.09 | 54.5 | 22.5 | 21 | 39.4 | – | 29.9 | 30.4 | 10.9 | 14.7 | 8.83 | 17.8 | 7.74 | 3.24 | 23 | 3.6 | 44.2
6 | N#C/C(=C\c1ccc(F)cc1)c1nc2ccccc2c(=O)[nH]1 | > 100 | > 100 | > 100 | > 100 | > 100 | – | > 100 | > 100 | > 100 | > 100 | 74.5 | > 100 | > 100 | > 100 | > 100 | > 100 | > 100 | > 100 | > 100 | > 100
7 | COC(=O)c1ccc(/C=C2\Cc3ccccc3C2=O)cc1 | > 100 | > 100 | > 100 | > 100 | > 100 | > 100 | > 100 | > 100 | > 100 | > 100 | > 100 | > 100 | > 100 | > 100 | > 100 | > 100 | > 100 | > 100 | > 100 | > 100
8 | COc1ccc(C2C3=C(COC3=O)OC(C)(C)Oc3cc4c(cc32)OCO4)cc1 (stereo not given) | > 100 | 73.4 | > 92.7 | > 61.6 | 89.3 | > 100 | > 100 | > 92.6 | > 100 | > 100 | 23 | > 100 | 8.97 | > 69.5 | 14.9 | > 100 | 98.7 | > 100 | 96.9 | > 81
9 | COc1cccc(CCn2c(N)c(C(=O)O)c3ccc([N+](=O)[O-])cc3c2=O)c1 | > 100 | > 100 | > 100 | > 100 | 87.4 | 64.7 | > 100 | > 100 | > 100 | > 100 | 90.3 | > 100 | > 100 | 75.8 | > 100 | > 100 | > 100 | – | > 100 | –
10 | C/C(=N/NC(=S)N(C)CCc1ccccn1)c1cnccn1 | 29 | 16.1 | 12.8 | > 100 | 10.2 | 13 | 3.51 | 13 | 5.93 | 19 | 18.4 | > 68.2 | 20.9 | 20.8 | 35.7 | 0.385 | 0.272 | 34.6 | 33.8 | 19.4
11 | COc1cc(/C=C/C=C2\CCC/C(=C\C=C\c3ccc(O)c(OC)c3)C2=O)ccc1O | 43.7 | 38.2 | 64.7 | > 100 | 60.5 | > 100 | 39 | 57.7 | > 100 | > 100 | > 100 | 8.99 | > 100 | 3.39 | > 100 | 72.3 | 39.5 | 31.4 | > 100 | 97.4
12 | O=c1oc2ccccc2cc1-c1csc(Nc2cc(Cl)cc(Cl)c2)n1 | > 100 | > 100 | > 100 | > 100 | > 100 | > 56.7 | 4.38 | > 100 | – | > 52.8 | 11.8 | > 100 | > 100 | 96.6 | > 53.1 | > 52 | 7.53 | > 100 | > 100 | > 58.6
13 | Cc1nc2c(=O)n(C)c(=O)nc-2n(CCO)c1C | > 100 | > 100 | > 100 | > 100 | > 100 | > 100 | > 100 | > 100 | > 100 | > 100 | > 100 | > 100 | > 100 | > 100 | > 100 | > 100 | > 100 | > 100 | > 100 | > 100
14 | CN(CCCCN1CCCC1)CCCCN(C)C(=O)Cc1ccc(Cl)c(Cl)c1 | 50 | 36.4 | 37 | 10.5 | 36.7 | 37.3 | 57.1 | 30.6 | 33.9 | 36.8 | 32.8 | 20.7 | 12.2 | 27.7 | 5.3 | 64.9 | 3.31 | 6.22 | 18.5 | 26.1
15 | Brc1cccc(Nc2ncnc3sc4c(c23)CCC(Nc2cccc(Br)c2)C4)c1 (stereo not given) | > 100 | > 100 | > 100 | > 100 | > 100 | > 100 | > 100 | > 100 | > 100 | > 100 | > 100 | > 100 | > 100 | > 100 | > 100 | > 100 | > 100 | > 100 | > 100 | > 100
16 | N#CC(c1ccccc1)N(CCc1ccccc1)C(=O)c1ccccc1 (stereo not given) | > 100 | > 100 | > 100 | > 100 | > 100 | > 100 | > 100 | > 100 | > 100 | > 81 | 57.2 | > 100 | > 100 | > 100 | > 100 | > 100 | > 100 | > 100 | > 100 | > 100
17 | COc1ccc2c(c1)CCC(CN1CCN(CCOC(c3ccc(F)cc3)c3ccc(F)cc3)CC1)C2O (stereo not given) | 22.3 | 24 | 25.5 | 45 | 27.5 | 28.1 | 19.8 | 44.9 | 32.9 | 31.5 | 32.9 | 48.3 | 29.7 | 28.6 | 34.6 | 27.4 | – | 28.1 | 9.33 | 63.2
18 | C=CCOc1ccc(C2(c3ccc(OCC=C)cc3)C(=O)Nc3ccccc32)cc1 | > 10 | > 10 | > 10 | > 10 | > 10 | > 10 | > 10 | > 10 | > 10 | > 10 | > 10 | > 10 | > 10 | > 10 | > 10 | > 10 | – | > 10 | > 10 | > 10
19 | c1cc2[nH]snc2c2cncc12 | > 100 | > 100 | > 100 | > 100 | > 100 | > 100 | > 100 | > 100 | > 100 | – | > 100 | > 100 | > 100 | > 100 | > 100 | > 100 | > 100 | > 100 | > 100 | > 100
